{"source": "ChEMBL document CHEMBL5678810", "key": {"[1]": {"biological_target": "AP2-associated protein kinase 1 (Homo sapiens) (UniProt Q2M2I8)", "test": "Inhibition of T7 bacteriophage fused human AAK1 at 10 uM by KINOMEscan analysis relative to control"}, "[2]": {"biological_target": "NUAK family SNF1-like kinase 1 (Homo sapiens) (UniProt O60285)", "test": "Inhibition of T7 bacteriophage fused human ARK5 at 10 uM by KINOMEscan analysis relative to control"}, "[3]": {"biological_target": "Calcium/calmodulin-dependent protein kinase type 1D (Homo sapiens) (UniProt Q8IU85)", "sequence (Q8IU85 whole entry, looked up, the tested form may be a part)": "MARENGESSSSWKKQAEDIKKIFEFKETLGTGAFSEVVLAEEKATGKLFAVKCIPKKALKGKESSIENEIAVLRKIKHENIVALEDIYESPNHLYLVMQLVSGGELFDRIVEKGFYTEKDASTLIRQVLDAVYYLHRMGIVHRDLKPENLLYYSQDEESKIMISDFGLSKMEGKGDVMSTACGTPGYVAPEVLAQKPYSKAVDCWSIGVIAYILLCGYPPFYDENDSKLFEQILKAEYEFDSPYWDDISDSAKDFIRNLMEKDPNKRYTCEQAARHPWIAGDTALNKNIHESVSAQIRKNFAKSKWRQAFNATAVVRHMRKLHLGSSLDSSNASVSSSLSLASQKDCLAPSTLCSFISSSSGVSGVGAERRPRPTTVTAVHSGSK", "test": "Inhibition of T7 bacteriophage fused human CAMK1D at 10 uM by KINOMEscan analysis relative to control"}, "[4]": {"biological_target": "Calcium/calmodulin-dependent protein kinase type II subunit delta (Homo sapiens) (UniProt Q13557)", "test": "Inhibition of T7 bacteriophage fused human CAMK2D at 10 uM by KINOMEscan analysis relative to control"}, "[5]": {"biological_target": "Cyclin-dependent kinase 13 (Homo sapiens) (UniProt Q14004)", "test": "Inhibition of T7 bacteriophage fused human CDC2L5 at 10 uM by KINOMEscan analysis relative to control"}, "[6]": {"biological_target": "Cyclin-dependent kinase 5 (Homo sapiens) (UniProt Q00535)", "test": "Inhibition of T7 bacteriophage fused human CDK5 at 10 uM by KINOMEscan analysis relative to control"}, "[7]": {"biological_target": "Casein kinase I isoform epsilon (Homo sapiens) (UniProt P49674)", "test": "Inhibition of T7 bacteriophage fused human CSNK1E at 10 uM by KINOMEscan analysis relative to control"}, "[8]": {"biological_target": "Casein kinase I isoform gamma-1 (Homo sapiens) (UniProt Q9HCP0)", "test": "Inhibition of T7 bacteriophage fused human CSNK1G1 at 10 uM by KINOMEscan analysis relative to control"}, "[9]": {"biological_target": "Serine/threonine-protein kinase DCLK2 (Homo sapiens) (UniProt Q8N568)", "test": "Inhibition of T7 bacteriophage fused human DCAMKL2 at 10 uM by KINOMEscan analysis relative to control"}, "[10]": {"biological_target": "Ephrin type-B receptor 2 (Homo sapiens) (UniProt P29323)", "test": "Inhibition of T7 bacteriophage fused human EPHB2 at 10 uM by KINOMEscan analysis relative to control"}, "[11]": {"biological_target": "Ephrin type-B receptor 4 (Homo sapiens) (UniProt P54760)", "sequence (P54760 whole entry, the tested form may be a part)": "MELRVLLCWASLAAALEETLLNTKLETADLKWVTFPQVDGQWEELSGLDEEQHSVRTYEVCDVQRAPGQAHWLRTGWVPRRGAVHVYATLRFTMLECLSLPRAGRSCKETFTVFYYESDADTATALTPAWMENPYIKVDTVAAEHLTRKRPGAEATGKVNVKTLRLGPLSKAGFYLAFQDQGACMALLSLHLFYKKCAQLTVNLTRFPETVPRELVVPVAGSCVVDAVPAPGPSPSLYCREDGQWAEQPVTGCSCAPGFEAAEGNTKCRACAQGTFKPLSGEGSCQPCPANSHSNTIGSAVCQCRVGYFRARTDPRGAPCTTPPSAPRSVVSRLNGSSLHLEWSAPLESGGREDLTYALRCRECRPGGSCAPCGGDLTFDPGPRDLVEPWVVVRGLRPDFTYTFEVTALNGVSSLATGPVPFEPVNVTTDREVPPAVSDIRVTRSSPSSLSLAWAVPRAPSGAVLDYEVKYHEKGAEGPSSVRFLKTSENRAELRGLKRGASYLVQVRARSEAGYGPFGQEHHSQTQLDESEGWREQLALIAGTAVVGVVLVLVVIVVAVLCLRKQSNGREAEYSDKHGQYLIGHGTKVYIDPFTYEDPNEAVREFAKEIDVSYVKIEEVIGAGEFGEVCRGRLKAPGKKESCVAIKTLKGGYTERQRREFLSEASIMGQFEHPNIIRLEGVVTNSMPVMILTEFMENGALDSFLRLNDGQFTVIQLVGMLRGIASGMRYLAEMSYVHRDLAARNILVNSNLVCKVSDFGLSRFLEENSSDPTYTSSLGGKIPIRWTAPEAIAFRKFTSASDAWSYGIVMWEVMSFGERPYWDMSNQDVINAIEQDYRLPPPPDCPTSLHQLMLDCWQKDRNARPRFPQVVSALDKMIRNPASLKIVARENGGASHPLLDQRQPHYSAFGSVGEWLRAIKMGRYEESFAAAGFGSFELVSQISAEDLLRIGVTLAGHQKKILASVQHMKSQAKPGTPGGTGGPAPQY", "test": "Inhibition of T7 bacteriophage fused human EPHB4 at 10 uM by KINOMEscan analysis relative to control"}, "[12]": {"biological_target": "Homeodomain-interacting protein kinase 1 (Homo sapiens) (UniProt Q86Z02)", "test": "Inhibition of T7 bacteriophage fused human HIPK1 at 10 uM by KINOMEscan analysis relative to control"}, "[13]": {"biological_target": "Serine/threonine-protein kinase LATS1 (Homo sapiens) (UniProt O95835)", "test": "Inhibition of T7 bacteriophage fused human LATS1 at 10 uM by KINOMEscan analysis relative to control"}, "[14]": {"biological_target": "Serine/threonine-protein kinase NIM1 (Homo sapiens) (UniProt Q8IY84)", "test": "Inhibition of T7 bacteriophage fused human NIM1 at 10 uM by KINOMEscan analysis relative to control"}, "[15]": {"system": "Phosphatidylinositol 4,5-bisphosphate 3-kinase catalytic subunit alpha isoform (Homo sapiens), P42336 [E545A]", "sequence (P42336 whole entry E545A, the tested form may be a part, canonical isoform)": "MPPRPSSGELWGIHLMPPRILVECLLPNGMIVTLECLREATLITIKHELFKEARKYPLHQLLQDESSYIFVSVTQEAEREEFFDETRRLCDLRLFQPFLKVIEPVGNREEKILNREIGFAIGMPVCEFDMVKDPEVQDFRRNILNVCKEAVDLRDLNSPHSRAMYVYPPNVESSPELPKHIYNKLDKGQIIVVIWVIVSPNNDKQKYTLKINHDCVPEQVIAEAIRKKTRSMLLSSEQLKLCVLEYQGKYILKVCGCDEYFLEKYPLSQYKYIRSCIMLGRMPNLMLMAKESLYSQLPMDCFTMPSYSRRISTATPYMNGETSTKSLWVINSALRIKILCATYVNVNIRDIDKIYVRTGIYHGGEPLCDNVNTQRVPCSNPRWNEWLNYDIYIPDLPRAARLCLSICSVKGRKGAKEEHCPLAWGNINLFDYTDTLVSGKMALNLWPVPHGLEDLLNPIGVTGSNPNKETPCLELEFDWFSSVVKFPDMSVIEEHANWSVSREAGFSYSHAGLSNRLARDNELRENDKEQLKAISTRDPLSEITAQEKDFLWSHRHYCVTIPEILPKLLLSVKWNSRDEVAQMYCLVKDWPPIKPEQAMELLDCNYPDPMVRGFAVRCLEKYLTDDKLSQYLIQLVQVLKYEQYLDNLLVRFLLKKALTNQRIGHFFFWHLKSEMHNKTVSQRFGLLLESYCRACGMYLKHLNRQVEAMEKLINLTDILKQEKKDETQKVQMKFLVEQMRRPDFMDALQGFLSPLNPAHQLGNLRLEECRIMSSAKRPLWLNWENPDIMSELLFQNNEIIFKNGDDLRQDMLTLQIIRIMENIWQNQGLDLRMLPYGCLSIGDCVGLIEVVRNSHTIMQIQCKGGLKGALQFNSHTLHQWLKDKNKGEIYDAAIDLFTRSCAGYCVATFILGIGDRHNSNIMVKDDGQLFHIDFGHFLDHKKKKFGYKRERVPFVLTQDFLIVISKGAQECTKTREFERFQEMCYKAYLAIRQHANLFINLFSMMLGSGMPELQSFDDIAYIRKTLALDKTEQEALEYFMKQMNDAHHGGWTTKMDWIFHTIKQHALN", "test": "Inhibition of T7 bacteriophage fused human PIK3CA E545A mutant at 10 uM by KINOMEscan analysis relative to control"}, "[16]": {"biological_target": "Phosphatidylinositol 4,5-bisphosphate 3-kinase catalytic subunit gamma isoform (Homo sapiens) (UniProt P48736)", "test": "Inhibition of T7 bacteriophage fused human PIK3CG at 10 uM by KINOMEscan analysis relative to control"}, "[17]": {"biological_target": "Serine/threonine-protein kinase PLK1 (Homo sapiens) (UniProt P53350)", "test": "Inhibition of T7 bacteriophage fused human PLK1 at 10 uM by KINOMEscan analysis relative to control"}, "[18]": {"biological_target": "Protein kinase C theta type (Homo sapiens) (UniProt Q04759)", "test": "Inhibition of T7 bacteriophage fused human PRKCQ at 10 uM by KINOMEscan analysis relative to control"}, "[19]": {"biological_target": "Serine/threonine-protein kinase D3 (Homo sapiens) (UniProt O94806)", "test": "Inhibition of T7 bacteriophage fused human PRKD3 at 10 uM by KINOMEscan analysis relative to control"}, "[20]": {"biological_target": "cAMP-dependent protein kinase catalytic subunit PRKX (Homo sapiens) (UniProt P51817)", "test": "Inhibition of T7 bacteriophage fused human PRKX at 10 uM by KINOMEscan analysis relative to control"}, "[21]": {"biological_target": "Serine/threonine-protein kinase NLK (Homo sapiens) (UniProt Q9UBE8)", "test": "Inhibition of T7 bacteriophage fused human NLK at 10 uM by KINOMEscan analysis relative to control; values are per cent of control"}, "[22]": {"biological_target": "Mitogen-activated protein kinase 1 (Homo sapiens) (UniProt P28482)", "test": "Inhibition of T7 bacteriophage fused human ERK2 at 10 uM by KINOMEscan analysis relative to control; values are per cent of control"}, "[23]": {"biological_target": "Dual specificity mitogen-activated protein kinase kinase 2 (Homo sapiens) (UniProt P36507)", "test": "Inhibition of T7 bacteriophage fused human MEK2 at 10 uM by KINOMEscan analysis relative to control; values are per cent of control"}, "[24]": {"biological_target": "Muscle, skeletal receptor tyrosine-protein kinase (Homo sapiens) (UniProt O15146)", "test": "Inhibition of T7 bacteriophage fused human MUSK at 10 uM by KINOMEscan analysis relative to control; values are per cent of control"}, "[25]": {"biological_target": "Myosin light chain kinase, smooth muscle (Homo sapiens) (UniProt Q15746)", "test": "Inhibition of T7 bacteriophage fused human MYLK at 10 uM by KINOMEscan analysis relative to control; values are per cent of control"}, "[26]": {"biological_target": "Fibroblast growth factor receptor 2 (Homo sapiens) (UniProt P21802)", "sequence (P21802 22-821 limits assumed)": "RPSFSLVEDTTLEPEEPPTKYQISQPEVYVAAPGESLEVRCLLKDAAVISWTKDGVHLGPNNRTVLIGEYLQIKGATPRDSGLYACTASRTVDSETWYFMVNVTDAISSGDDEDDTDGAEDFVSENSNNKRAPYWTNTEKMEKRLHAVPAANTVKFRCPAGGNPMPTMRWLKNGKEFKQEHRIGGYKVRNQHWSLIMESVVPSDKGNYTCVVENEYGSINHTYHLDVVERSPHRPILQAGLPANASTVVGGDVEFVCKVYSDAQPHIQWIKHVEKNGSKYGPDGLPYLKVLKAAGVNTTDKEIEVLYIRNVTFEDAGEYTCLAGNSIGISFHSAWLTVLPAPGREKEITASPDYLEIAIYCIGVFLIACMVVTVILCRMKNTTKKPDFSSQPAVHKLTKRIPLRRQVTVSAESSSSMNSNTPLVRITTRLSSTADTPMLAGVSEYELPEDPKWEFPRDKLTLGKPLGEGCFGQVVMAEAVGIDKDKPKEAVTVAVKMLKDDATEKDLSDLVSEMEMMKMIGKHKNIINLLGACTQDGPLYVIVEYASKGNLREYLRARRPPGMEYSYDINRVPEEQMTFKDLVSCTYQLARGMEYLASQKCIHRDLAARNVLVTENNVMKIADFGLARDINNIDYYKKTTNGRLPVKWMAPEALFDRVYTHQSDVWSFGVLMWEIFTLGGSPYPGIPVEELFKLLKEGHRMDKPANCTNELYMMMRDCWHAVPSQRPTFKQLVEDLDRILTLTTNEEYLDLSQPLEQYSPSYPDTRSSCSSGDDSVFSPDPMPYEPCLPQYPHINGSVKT", "test": "Inhibition of T7 bacteriophage fused human FGFR2 at 10 uM by KINOMEscan analysis relative to control; values are per cent of control"}, "[27]": {"biological_target": "Homeodomain-interacting protein kinase 3 (Homo sapiens) (UniProt Q9H422)", "sequence (Q9H422 whole entry, looked up, the tested form may be a part)": "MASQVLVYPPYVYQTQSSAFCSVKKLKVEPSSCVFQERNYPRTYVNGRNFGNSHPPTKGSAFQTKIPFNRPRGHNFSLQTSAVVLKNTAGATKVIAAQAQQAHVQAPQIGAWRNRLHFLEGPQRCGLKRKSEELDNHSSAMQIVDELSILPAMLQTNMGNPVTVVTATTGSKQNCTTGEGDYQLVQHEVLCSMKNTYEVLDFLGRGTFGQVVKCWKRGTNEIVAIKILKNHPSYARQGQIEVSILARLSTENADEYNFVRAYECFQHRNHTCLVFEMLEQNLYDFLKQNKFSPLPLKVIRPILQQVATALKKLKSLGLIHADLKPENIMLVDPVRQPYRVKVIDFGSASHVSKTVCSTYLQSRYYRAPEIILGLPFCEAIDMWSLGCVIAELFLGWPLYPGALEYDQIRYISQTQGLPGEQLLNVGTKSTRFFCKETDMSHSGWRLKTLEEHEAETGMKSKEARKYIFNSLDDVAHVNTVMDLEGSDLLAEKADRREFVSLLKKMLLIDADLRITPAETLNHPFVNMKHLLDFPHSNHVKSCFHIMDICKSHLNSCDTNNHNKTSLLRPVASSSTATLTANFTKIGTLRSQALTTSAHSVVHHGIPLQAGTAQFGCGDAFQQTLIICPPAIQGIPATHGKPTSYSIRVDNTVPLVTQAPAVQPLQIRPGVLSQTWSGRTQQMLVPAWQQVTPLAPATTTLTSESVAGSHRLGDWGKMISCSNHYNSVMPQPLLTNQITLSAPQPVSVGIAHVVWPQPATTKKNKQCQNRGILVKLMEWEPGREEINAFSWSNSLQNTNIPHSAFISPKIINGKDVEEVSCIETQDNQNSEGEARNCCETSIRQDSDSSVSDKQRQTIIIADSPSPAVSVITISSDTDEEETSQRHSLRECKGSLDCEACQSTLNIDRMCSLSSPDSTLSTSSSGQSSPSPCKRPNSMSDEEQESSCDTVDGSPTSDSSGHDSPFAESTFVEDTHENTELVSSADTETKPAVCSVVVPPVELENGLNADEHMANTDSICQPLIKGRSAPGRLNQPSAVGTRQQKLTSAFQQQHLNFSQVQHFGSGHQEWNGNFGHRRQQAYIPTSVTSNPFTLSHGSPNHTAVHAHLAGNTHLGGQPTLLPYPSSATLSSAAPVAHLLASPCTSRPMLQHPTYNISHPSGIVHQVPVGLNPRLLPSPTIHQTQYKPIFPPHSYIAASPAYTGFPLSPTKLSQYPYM", "test": "Inhibition of T7 bacteriophage fused human HIPK3 at 10 uM by KINOMEscan analysis relative to control; values are per cent of control"}, "[28]": {"biological_target": "Serine/threonine-protein kinase MARK1 (Homo sapiens) (UniProt Q9P0L2)", "test": "Inhibition of T7 bacteriophage fused human MARK1 at 10 uM by KINOMEscan analysis relative to control; values are per cent of control"}, "[29]": {"biological_target": "Mitogen-activated protein kinase kinase kinase 1 (Homo sapiens) (UniProt Q13233)", "test": "Inhibition of T7 bacteriophage fused human MAP3K1 at 10 uM by KINOMEscan analysis relative to control; values are per cent of control"}, "[30]": {"biological_target": "Mitogen-activated protein kinase 11 (Homo sapiens) (UniProt Q15759)", "sequence (Q15759 whole entry, the tested form may be a part)": "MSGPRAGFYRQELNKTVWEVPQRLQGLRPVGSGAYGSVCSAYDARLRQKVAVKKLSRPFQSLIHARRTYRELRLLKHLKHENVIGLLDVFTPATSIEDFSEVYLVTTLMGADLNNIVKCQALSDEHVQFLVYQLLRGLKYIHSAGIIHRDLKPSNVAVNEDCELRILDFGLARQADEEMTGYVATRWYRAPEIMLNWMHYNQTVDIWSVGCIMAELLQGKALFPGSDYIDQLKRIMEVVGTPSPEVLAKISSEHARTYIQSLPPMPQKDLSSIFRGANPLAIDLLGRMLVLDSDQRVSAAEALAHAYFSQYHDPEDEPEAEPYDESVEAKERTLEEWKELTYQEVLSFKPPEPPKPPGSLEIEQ", "test": "Inhibition of T7 bacteriophage fused human p38-beta at 10 uM by KINOMEscan analysis relative to control; values are per cent of control"}}, "data": [{"molecule": "COc1cc(N2CCC(N3CCN(C)CC3)CC2)ccc1Nc1ncc2c(n1)N(C)c1ccccc1C(=O)N2C", "values": [{"measurement": "inhibition", "setting": "[1]", "result": 84, "unit": "%"}, {"measurement": "inhibition", "setting": "[2]", "result": 47, "unit": "%"}, {"measurement": "inhibition", "setting": "[3]", "result": 69, "unit": "%"}, {"measurement": "inhibition", "setting": "[4]", "result": 28, "unit": "%"}, {"measurement": "inhibition", "setting": "[5]", "result": 100, "unit": "%"}, {"measurement": "inhibition", "setting": "[6]", "result": 81, "unit": "%"}, {"measurement": "inhibition", "setting": "[7]", "result": 95, "unit": "%"}, {"measurement": "inhibition", "setting": "[8]", "result": 100, "unit": "%"}, {"measurement": "inhibition", "setting": "[9]", "result": 0.45, "unit": "%"}, {"measurement": "inhibition", "setting": "[10]", "result": 100, "unit": "%"}, {"measurement": "inhibition", "setting": "[11]", "result": 100, "unit": "%"}, {"measurement": "inhibition", "setting": "[12]", "result": 100, "unit": "%"}, {"measurement": "inhibition", "setting": "[13]", "result": 100, "unit": "%"}, {"measurement": "inhibition", "setting": "[14]", "result": 100, "unit": "%"}, {"measurement": "inhibition", "setting": "[15]", "result": 98, "unit": "%"}, {"measurement": "inhibition", "setting": "[16]", "result": 15, "unit": "%"}, {"measurement": "inhibition", "setting": "[17]", "result": 0.7, "unit": "%"}, {"measurement": "inhibition", "setting": "[18]", "result": 100, "unit": "%"}, {"measurement": "inhibition", "setting": "[19]", "result": 42, "unit": "%"}, {"measurement": "inhibition", "setting": "[20]", "result": 99, "unit": "%"}, {"measurement": "residual activity", "setting": "[21]", "result": 50, "unit": "%"}, {"measurement": "residual activity", "setting": "[22]", "result": 85, "unit": "%"}, {"measurement": "residual activity", "setting": "[23]", "result": 99, "unit": "%"}, {"measurement": "residual activity", "setting": "[24]", "result": 99, "unit": "%"}, {"measurement": "residual activity", "setting": "[25]", "result": 8.7, "unit": "%"}, {"measurement": "residual activity", "setting": "[26]", "result": 95, "unit": "%"}, {"measurement": "residual activity", "setting": "[27]", "result": 89, "unit": "%"}, {"measurement": "residual activity", "setting": "[28]", "result": 87, "unit": "%"}, {"measurement": "residual activity", "setting": "[29]", "result": 95, "unit": "%"}, {"measurement": "residual activity", "setting": "[30]", "result": 60, "unit": "%"}]}]}
